Laboratory results as given in EP4768492A1, “CAPPING COMPOUND, AND APPLICATION THEREOF IN MRNA CAPPING” (Jiangsu Synthgene Biotechnology Co., Ltd., priority 2023, dated 2025).

Legend:
[1] = system: mice; experiment: mRNA translation efficiency in mice: LNP-mRNA by tail vein, luciferase in vivo imaging; details: 1 µg LNP-mRNA; for protein expression levels in mice: 24 hours after administration, compared to Comparative Example 1; for distribution after tail vein administration: mice, in vivo imaging (FIG. 1)
Method: The tail of each mouse was gently wiped with an alcohol cotton ball, and 1 µg of an LNP-mRNA drug was injected via the tail vein using an insulin syringe. Twenty-four hours after the tail vein administration, the mouse was intraperitoneally injected with 10% chloral hydrate (anesthetized according to the mouse body weight, 50-60 µL/20 g). After the mouse was anesthetized, 150 µL of a prepared luminescent substrate (luminescent substrate concentration: 15 mg/mL, Cat. No. 2109GR001, brand: biofroxx) was intraperitoneally injected. Five minutes after the injection of the luminescent substrate into the mouse, the mouse was placed in a small animal in vivo imaging system. The corresponding luciferase channel was selected to capture an in vivo image of the mouse, and the image was saved. This procedure was repeated at other time points, and the exposure parameters should be kept consistent for comparison.

[2] = system: mRNA; experiment: IVT capping rate of mRNA by LC-MS after RNase H cleavage; type: biochemical
Method: (§1) mRNA IVT reactions were performed using the cap analogs from the examples. Firstly, the required volumes of materials for the system were calculated, and then the samples were added (the IVT reaction system is shown in Table 1). Sterile enzyme-free water was added to the system, and then 10× buffer, NTPs, and the cap analog were sequentially added. The mixture was uniformly mixed and then gently centrifuged, followed by the addition of the nuclease inhibitor, the inorganic pyrophosphatase, the T7 RNA polymerase, and the linearized DNA template. The resulting mixture was thoroughly mixed, then gently centrifuged, and incubated at 37 °C. After 2 h, DNase I (1 U) was added, and the mixture was incubated at 37 °C for another 30 min to remove the DNA template. RNA purification was then performed using a magnetic bead purification method. The purified mRNA was dissolved in sterile enzyme-free water, and then quantitative detection was performed using Nanodrop One. Table 1. IVT reaction system
Liquid chromatography-mass spectrometry (LC-MS) was used to detect the IVT capping rates of mRNAs with different starting cap analogs. Firstly, a labeled (usually biotin-labeled) DNA probe matched with the starting base of the transcribed mRNA product was required to be designed, and streptavidin-labeled magnetic beads were washed, and then incubated with the synthesized DNA probe, mRNA, and 10× RNase H reaction buffer with slow mixing at room temperature for 30 min. Subsequently, 20 µL of RNase H (5 U/µL) was added, and the mixture was incubated at 37 °C for 3 h, with uniform mixing every half hour. After the incubation was completed, the magnetic beads were washed, and then 100 µL of 75% methanol heated to 80 °C was added to the washed magnetic beads. The mixture was heated to 80 °C on a heating plate, held for 3 min, and then placed on a magnetic rack. The supernatant was pipetted and dried at room temperature for 45 min to 10 µL by using an evaporation centrifuge. The sample was then resuspended in 50 µL of 100 µM EDTA/1% MeOH for LC-MS analysis to determine the capping of RNA in the transcription reaction. Since capped and uncapped bases have a distinct difference in molecular weight, the capping rates of mRNA transcription processes initiated with different cap analogs can be determined by utilizing this difference in molecular mass.

[3] = system: mRNA; experiment: mRNA in vitro transcription (IVT) yield with cap analog; type: biochemical; details: mRNA yield of IVT reaction, 37 °C 2 h, purified mRNA quantified by Nanodrop One
Method: as §1

SMILES | protein expression levels in mice [1] | distribution after tail vein administration [1] | Capping rate (%) [2] | Yield (µg) in 20 µL system [3]
COC1C(OP(=O)(O)OCC2OC(n3cnc4c(=O)[nH]c(N)nc43)C(O)C2O)C(COP(=O)(O)OP(=O)(O)OP(=O)(O)C2CC2C2OC(n3c[n+](C)c4c(=O)[nH]c(N)nc43)C(O)C2O)OC1n1cnc2c(N)ncnc21 (stereo not shown) [Compound 1] | higher protein expression levels in mice compared to Comparative Example 1 | mainly distributed in the liver | 99.1% | 114 µg
COC1C(O)C(n2c[n+](C)c3c(=O)[nH]c(N)nc32)OC1C1CC1P(=O)(O)OP(=O)(O)OP(=O)(O)OCC1OC(n2cnc3c(N)ncnc32)C(OC)C1OP(=O)(O)OCC1OC(n2cnc3c(=O)[nH]c(N)nc32)C(O)C1O (stereo not shown) [Compound 2] | higher protein expression levels in mice compared to Comparative Example 1 | mainly distributed in the liver | 98.4% | 117 µg
COCC1C(O)C(n2c[n+](C)c3c(=O)[nH]c(N)nc32)OC1C1CC1P(=O)(O)OP(=O)(O)OP(=O)(O)OCC1OC(n2cnc3c(N)ncnc32)C(OC)C1OP(=O)(O)OCC1OC(n2cnc3c(=O)[nH]c(N)nc32)C(O)C1O (stereo not shown) [Compound 5] | – | – | 96.3% | 110 µg
COC1C(OP(=O)(O)OCC2OC(n3cnc4c(=O)[nH]c(N)nc43)C(O)C2O)C(COP(=O)(O)OP(=O)(O)OP(=O)(O)C2CC2C2OC(n3c[n+](C)c4c(=O)[nH]c(N)nc43)C(F)C2O)OC1n1cnc2c(N)ncnc21 (stereo not shown) [Compound 9] | – | – | 94.5% | 98 µg
COC1C(OP(=O)(O)OCC2OC(n3cnc4c(=O)[nH]c(N)nc43)C(O)C2O)C(COP(=O)(O)OP(=O)(O)OP(=O)(O)C2CC2C2OC(n3c[n+](C)c4c(=O)[nH]c(N)nc43)C(O)C2CNC(C)=O)OC1n1cnc2c(N)ncnc21 (stereo not shown) [Compound 10] | – | – | 96.3% | 103 µg
CO[C@@H]1[C@H](OP(=O)(O)OC[C@H]2O[C@@H](n3cnc4c(=O)[nH]c(N)nc43)[C@H](O)[C@@H]2O)[C@@H](COP(O)(=S)OP(=O)(O)OP(=O)(O)C2CC2[C@H]2O[C@@H](n3c[n+](C)c4c(=O)[nH]c(N)nc43)[C@H](O)[C@@H]2O)O[C@H]1n1cnc2c(N)ncnc21 (stereo partly shown) [Compound 14] | – | – | 98.0% | 102 µg
CO[C@@H]1[C@H](OP(=O)(O)OC[C@H]2O[C@@H](n3cnc4c(=O)[nH]c(N)nc43)[C@H](O)[C@@H]2O)[C@@H](C2CC2P(=O)(O)OP(=O)(O)OP(=O)(O)OC[C@H]2O[C@@H](n3c[n+](C)c4c(=O)[nH]c(N)nc43)[C@H](O)[C@@H]2O)O[C@H]1n1cnc2c(N)ncnc21 (stereo partly shown) [Compound 21] | – | – | 97.1% | 99 µg
CO[C@@H]1[C@H](OP(=O)(O)C2CC2[C@H]2O[C@@H](n3cnc4c(=O)[nH]c(N)nc43)[C@H](O)[C@@H]2O)[C@@H](COP(=O)(O)OP(=O)(O)OP(=O)(O)OC[C@H]2O[C@@H](n3c[n+](C)c4c(=O)[nH]c(N)nc43)[C@H](O)[C@@H]2O)O[C@H]1n1cnc2c(N)ncnc21 (stereo partly shown) [Compound 22] | – | – | 96.0% | 115 µg
CO[C@@H]1[C@H](OP(=O)(O)OC[C@H]2O[C@@H](n3cnc4c(=O)[nH]c(N)nc43)[C@H](O)[C@@H]2O)[C@@H](COP(=O)(O)OP(=O)(O)OP(=O)(O)OC2([C@H]3O[C@@H](n4c[n+](C)c5c(=O)[nH]c(N)nc54)[C@H](O)[C@@H]3O)CC2)O[C@H]1n1cnc2c(N)ncnc21 [Compound 31] | higher protein expression levels in mice compared to Comparative Example 1 | mainly distributed in the liver | 98.5% | 112 µg
CO[C@@H]1[C@H](OP(=O)(O)OC[C@H]2O[C@@H](n3cnc4c(=O)[nH]c(N)nc43)[C@H](O)[C@@H]2O)[C@@H](COP(=O)(O)OP(=O)(O)OP(=O)(O)OC2([C@H]3O[C@@H](n4c[n+](C)c5c(=O)[nH]c(N)nc54)[C@H](O)[C@@H]3OC)CC2)O[C@H]1n1cnc2c(N)ncnc21 [Compound 32] | higher protein expression levels in mice compared to Comparative Example 1 | mainly distributed in the liver | 98.9% | 116 µg
CO[C@@H]1[C@H](OP(=O)(O)OC[C@H]2O[C@@H](n3cnc4c(=O)[nH]c(N)nc43)[C@H](O)[C@@H]2O)[C@@H](COP(=O)(O)OP(=O)(O)OP(=O)(O)OC[C@H]2O[C@@H](n3c[n+](C)c4c(=O)[nH]c(N)nc43)[C@H](O)[C@@H]2O)O[C@H]1n1cnc2c(N)ncnc21 [Compound 43, reference compound] | – | mainly distributed in the liver | 96.1% | 105 µg
